The target in experiment [1] is T1, BRG-1 (Homo sapiens, UniProt P51532).
T1 construct: made in house; host or cells: High Five insect cells
Put plainly: ATPase catalytic activity of BRG-1, ADP-Glo in vitro biochemical assay. Particulars: ATPase catalytic activity, 30 nM BRG-1, 400 μM ATP, read-out: BRG1 IP50 (μM)*.

In experiment [2] the target is T2, BRM (Homo sapiens, UniProt P51531).
T2 construct: made in house; host or cells: High Five insect cells
Briefly: ATPase catalytic activity of BRM, ADP-Glo in vitro biochemical assay. Particulars: ATPase catalytic activity, 30 nM BRM, 400 μM ATP, read-out: BRM IP50 (μM)*.

This is an account of results in US20230079819A1, “COMPOUNDS AND USES THEREOF” (Foghorn Therapeutics Inc., priority 2019, published 2023).

Bounds are passed on as bounds.

T1 sequence (P51532 whole entry): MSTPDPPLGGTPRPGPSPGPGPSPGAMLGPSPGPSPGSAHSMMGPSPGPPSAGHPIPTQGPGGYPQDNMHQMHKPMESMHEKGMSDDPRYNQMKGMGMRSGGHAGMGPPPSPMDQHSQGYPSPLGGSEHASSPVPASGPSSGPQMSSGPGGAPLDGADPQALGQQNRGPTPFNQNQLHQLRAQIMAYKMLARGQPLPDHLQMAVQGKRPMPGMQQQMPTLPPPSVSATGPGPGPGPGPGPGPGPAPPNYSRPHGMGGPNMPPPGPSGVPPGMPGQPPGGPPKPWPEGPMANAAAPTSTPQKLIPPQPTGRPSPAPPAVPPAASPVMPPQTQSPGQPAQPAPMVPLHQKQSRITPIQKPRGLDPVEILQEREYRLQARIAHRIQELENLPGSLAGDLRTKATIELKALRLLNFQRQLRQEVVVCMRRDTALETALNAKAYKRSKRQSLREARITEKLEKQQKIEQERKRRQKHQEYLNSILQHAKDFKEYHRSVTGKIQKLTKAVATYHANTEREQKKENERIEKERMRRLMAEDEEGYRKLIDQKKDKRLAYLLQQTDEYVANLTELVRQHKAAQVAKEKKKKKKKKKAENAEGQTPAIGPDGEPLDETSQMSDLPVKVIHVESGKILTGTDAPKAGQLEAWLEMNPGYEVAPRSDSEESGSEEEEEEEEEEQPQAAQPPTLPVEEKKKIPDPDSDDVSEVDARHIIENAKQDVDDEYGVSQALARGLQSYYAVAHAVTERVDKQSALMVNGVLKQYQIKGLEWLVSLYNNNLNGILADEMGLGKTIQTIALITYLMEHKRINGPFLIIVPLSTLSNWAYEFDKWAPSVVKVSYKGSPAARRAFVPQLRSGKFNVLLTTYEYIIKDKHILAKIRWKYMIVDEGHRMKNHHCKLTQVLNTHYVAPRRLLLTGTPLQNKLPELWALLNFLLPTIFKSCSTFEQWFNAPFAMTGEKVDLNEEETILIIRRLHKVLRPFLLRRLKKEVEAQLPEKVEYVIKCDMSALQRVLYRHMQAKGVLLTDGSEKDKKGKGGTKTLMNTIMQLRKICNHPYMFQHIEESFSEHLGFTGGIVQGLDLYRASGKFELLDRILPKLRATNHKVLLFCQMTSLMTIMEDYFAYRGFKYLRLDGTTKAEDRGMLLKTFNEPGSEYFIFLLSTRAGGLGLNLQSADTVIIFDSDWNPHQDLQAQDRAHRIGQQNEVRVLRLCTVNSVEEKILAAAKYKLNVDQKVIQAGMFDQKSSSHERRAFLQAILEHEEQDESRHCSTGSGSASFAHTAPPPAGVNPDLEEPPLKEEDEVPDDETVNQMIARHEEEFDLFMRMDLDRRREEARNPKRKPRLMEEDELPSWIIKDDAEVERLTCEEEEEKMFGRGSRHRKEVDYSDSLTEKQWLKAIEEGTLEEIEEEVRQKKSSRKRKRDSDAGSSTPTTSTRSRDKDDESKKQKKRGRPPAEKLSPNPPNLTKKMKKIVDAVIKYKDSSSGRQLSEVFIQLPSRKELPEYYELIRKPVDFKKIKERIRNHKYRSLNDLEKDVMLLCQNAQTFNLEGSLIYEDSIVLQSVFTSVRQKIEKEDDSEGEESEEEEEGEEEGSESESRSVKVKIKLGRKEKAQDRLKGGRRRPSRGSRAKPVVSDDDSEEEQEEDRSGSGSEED
T2 sequence (P51531 whole entry): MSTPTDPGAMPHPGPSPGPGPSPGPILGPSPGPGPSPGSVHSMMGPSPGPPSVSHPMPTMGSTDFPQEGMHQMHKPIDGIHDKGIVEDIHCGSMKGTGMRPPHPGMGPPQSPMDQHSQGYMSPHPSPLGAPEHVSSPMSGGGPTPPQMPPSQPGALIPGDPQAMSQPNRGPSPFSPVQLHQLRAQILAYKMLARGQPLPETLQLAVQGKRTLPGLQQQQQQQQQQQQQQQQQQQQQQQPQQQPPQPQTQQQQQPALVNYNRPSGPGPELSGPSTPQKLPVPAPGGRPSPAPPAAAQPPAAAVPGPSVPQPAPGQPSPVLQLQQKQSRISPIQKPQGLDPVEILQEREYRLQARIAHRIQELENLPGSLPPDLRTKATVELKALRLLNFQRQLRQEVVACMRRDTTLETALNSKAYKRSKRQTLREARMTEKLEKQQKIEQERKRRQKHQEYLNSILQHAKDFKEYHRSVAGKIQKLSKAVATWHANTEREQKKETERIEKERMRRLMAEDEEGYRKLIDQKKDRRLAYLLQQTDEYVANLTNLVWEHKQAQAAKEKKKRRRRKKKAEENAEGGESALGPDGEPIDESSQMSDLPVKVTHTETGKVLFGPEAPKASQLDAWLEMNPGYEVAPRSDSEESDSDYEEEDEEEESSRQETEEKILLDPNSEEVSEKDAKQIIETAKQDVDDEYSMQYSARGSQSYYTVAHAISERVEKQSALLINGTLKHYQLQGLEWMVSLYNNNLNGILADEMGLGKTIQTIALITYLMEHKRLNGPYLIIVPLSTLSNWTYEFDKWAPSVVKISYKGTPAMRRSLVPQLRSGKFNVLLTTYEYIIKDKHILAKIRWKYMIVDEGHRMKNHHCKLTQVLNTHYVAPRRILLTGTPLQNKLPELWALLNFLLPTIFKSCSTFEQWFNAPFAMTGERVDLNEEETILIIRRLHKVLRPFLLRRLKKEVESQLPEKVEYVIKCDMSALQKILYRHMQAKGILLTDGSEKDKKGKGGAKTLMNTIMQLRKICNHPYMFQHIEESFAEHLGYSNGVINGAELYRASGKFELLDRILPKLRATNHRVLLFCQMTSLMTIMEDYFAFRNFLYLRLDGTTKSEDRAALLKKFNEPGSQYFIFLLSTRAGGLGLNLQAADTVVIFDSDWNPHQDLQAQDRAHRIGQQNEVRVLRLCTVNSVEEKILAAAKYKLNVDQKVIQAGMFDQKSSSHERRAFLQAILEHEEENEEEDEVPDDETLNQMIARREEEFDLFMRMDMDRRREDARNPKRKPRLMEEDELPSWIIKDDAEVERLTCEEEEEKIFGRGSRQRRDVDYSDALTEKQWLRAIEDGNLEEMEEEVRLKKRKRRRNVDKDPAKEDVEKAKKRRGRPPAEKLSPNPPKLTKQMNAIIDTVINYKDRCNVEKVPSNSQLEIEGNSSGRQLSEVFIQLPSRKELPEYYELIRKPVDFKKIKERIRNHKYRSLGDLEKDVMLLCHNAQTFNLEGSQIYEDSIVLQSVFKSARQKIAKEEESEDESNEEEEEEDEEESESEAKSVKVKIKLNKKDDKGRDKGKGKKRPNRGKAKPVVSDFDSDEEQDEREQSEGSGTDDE

`Cn1ccc2ccc(-c3csc(NC(=O)CNC(=O)c4ccn(C(C)(C)C)c4)n3)cc2c1=O` [Compound 123, 1-(tert-butyl)-N-(2-((4-(2-methyl-1-oxo-1,2-dihydroisoquinolin-7-yl)thiazol-2-yl)amino)-2-oxoethyl)-1H-pyrrole-3-carboxamide]: the IC50 was over 0.01 µM in experiment [1] and under 0.01 µM in experiment [2].
With `CN1Cc2ccc(-c3csc(NC(=O)CNC(=O)c4ccn(C(C)(C)C)c4)n3)cc2CC1=O` [Compound 124, 1-(tert-butyl)-N-(2-((4-(2-methyl-3-oxo-1,2,3,4-tetrahydroisoquinolin-6-yl)thiazol-2-yl)amino)-2-oxoethyl)-1H-pyrrole-3-carboxamide], the figures for the IC50 in experiment [1] and in experiment [2] were over 0.1 µM and over 0.01 µM, respectively.
On to `CC(C)(C)n1ccc(C(=O)NCC(=O)Nc2nc(-c3cccc(COC4CCOCC4)c3)cs2)c1` [Compound 125, 1-(tert-butyl)-N-(2-oxo-2-((4-(3-(((tetrahydro-2H-pyran-4-yl)oxy)methyl)phenyl)thiazol-2-yl)amino)ethyl)-1H-pyrrole-3-carboxamide], for which the IC50 in experiment [1] and in experiment [2] was over 0.01 µM in each case.
For the compound `CC(OC1CCOCC1)c1cccc(-c2csc(NC(=O)CNC(=O)c3ccn(C(C)(C)C)c3)n2)c1` (stereo not drawn) [Compound 126, 1-(tert-butyl)-N-(2-oxo-2-((4-(3-(1-((tetrahydro-2H-pyran-4-yl)oxy)ethyl)phenyl)thiazol-2-yl)amino)ethyl)-1H-pyrrole-3-carboxamide], the IC50 in experiment [1] is over 0.1 µM; in experiment [2], over 0.01 µM.
The matching figures for `CN1CCC(OCc2cccc(-c3csc(NC(=O)CNC(=O)c4ccn(C(C)(C)C)c4)n3)c2)CC1` [Compound 127, 1-(tert-butyl)-N-(2-((4-(3-(((1-methylpiperidin-4-yl)oxy)methyl)phenyl)thiazol-2-yl)amino)-2-oxoethyl)-1H-pyrrole-3-carboxamide]: over 0.1 µM and over 0.1 µM.
For `CN1CCC(OCc2cccc(-c3csc(NC(=O)CNC(=O)c4ccn(C(C)(C)C)c4)n3)c2)C(F)(F)C1` (stereo not drawn) [Compound 128, 1-(tert-butyl)-N-(2-((4-(3-(((3,3-difluoro-1-methylpiperidin-4-yl)oxy)methyl)phenyl)thiazol-2-yl)amino)-2-oxoethyl)-1H-pyrrole-3-carboxamide], the IC50 in experiment [1] and in experiment [2] was over 0.1 µM throughout.
As for `CC(C)(C)n1ccc(C(=O)NCC(=O)Nc2nc(-c3cccc(COC4CCOC4)c3)cs2)c1` (stereo not drawn) [Compound 129, 1-(tert-butyl)-N-(2-oxo-2-((4-(3-(((tetrahydrofuran-3-yl)oxy)methyl)phenyl)thiazol-2-yl)amino)ethyl)-1H-pyrrole-3-carboxamide], the IC50 in experiment [1] and in experiment [2] was over 0.01 µM in each case.
`CN1CCc2cc(-c3csc(NC(=O)CNC(=O)c4ccn(S(C)(=O)=O)c4)n3)ccc2C1` [Compound 130, N-(2-((4-(2-methyl-1,2,3,4-tetrahydroisoquinolin-6-yl)thiazol-2-yl)amino)-2-oxoethyl)-1-(methylsulfonyl)-1H-pyrrole-3-carboxamide]: the IC50 in experiment [1] and in experiment [2] was over 0.1 µM each time.
For the compound `Cn1ncc2ccc(-c3csc(NC(=O)CNC(=O)c4ccn(C(C)(C)C)c4)n3)cc21` [Compound 131, 1-(tert-butyl)-N-(2-((4-(1-methyl-1H-indazol-6-yl)thiazol-2-yl)amino)-2-oxoethyl)-1H-pyrrole-3-carboxamide], the figures for the IC50 in experiment [1] and in experiment [2] were over 0.1 µM and over 0.01 µM, respectively.
The matching figures for `Cn1ncc2ccc(-c3csc(NC(=O)CNC(=O)c4ccn(S(C)(=O)=O)c4)n3)cc21` [Compound 132, N-(2-((4-(1-methyl-1H-indazol-6-yl)thiazol-2-yl)amino)-2-oxoethyl)-1-(methylsulfonyl)-1H-pyrrole-3-carboxamide]: over 0.01 µM and over 0.01 µM.
Turning to `Cn1c(=O)ccc2ccc(-c3csc(NC(=O)CNC(=O)c4ccn(C(C)(C)C)c4)n3)cc21` [Compound 133, 1-(tert-butyl)-N-(2-((4-(1-methyl-2-oxo-1,2-dihydroquinolin-7-yl)thiazol-2-yl)amino)-2-oxoethyl)-1H-pyrrole-3-carboxamide], the IC50 in experiment [1] and in experiment [2] was over 0.1 µM throughout.
On to `CN1Cc2ccc(-c3csc(NC(=O)CNC(=O)c4ccn(C(C)(C)C)c4)n3)cc2N(C)C1=O` [Compound 134, 1-(tert-butyl)-N-(2-((4-(1,3-dimethyl-2-oxo-1,2,3,4-tetrahydroquinazolin-7-yl)thiazol-2-yl)amino)-2-oxoethyl)-1H-pyrrole-3-carboxamide], for which the IC50 in experiment [1] was over 0.1 µM; in experiment [2], over 0.01 µM.
Regarding `CC(C)(C)n1ccc(C(=O)NCC(=O)Nc2nc(-c3cccc(CO[C@H]4CCOC4)c3)cs2)c1` [Compound 135, (S)-1-(tert-butyl)-N-(2-oxo-2-((4-(3-(((tetrahydrofuran-3-yl)oxy)methyl)phenyl)thiazol-2-yl)amino)ethyl)-1H-pyrrole-3-carboxamide], the IC50 in experiment [1] and in experiment [2] was over 0.01 µM in each case.
In the case of `CC(C)(C)n1ccc(C(=O)NCC(=O)Nc2nc(-c3cccc(CO[C@@H]4CCOC4)c3)cs2)c1` [Compound 136, (R)-1-(tert-butyl)-N-(2-oxo-2-((4-(3-(((tetrahydrofuran-3-yl)oxy)methyl)phenyl)thiazol-2-yl)amino)ethyl)-1H-pyrrole-3-carboxamide], the IC50 in experiment [1] and in experiment [2] was over 0.01 µM in each case.
Take `CN1CCc2ccc(-c3csc(NC(=O)CNC(=O)c4ccn(S(C)(=O)=O)c4)n3)cc2C1=O` [Compound 137, N-(2-((4-(2-methyl-1-oxo-1,2,3,4-tetrahydroisoquinolin-7-yl)thiazol-2-yl)amino)-2-oxoethyl)-1-(methylsulfonyl)-1H-pyrrole-3-carboxamide]: the IC50 in experiment [1] is under 0.01 µM; in experiment [2] it was over 0.01 µM.
As for `CS(=O)(=O)n1ccc(C(=O)NCC(=O)Nc2nc(-c3cccc(C4(N)CCOCC4)c3)cs2)c1` [Compound 138, N-(2-((4-(3-(4-aminotetrahydro-2H-pyran-4-yl)phenyl)thiazol-2-yl)amino)-2-oxoethyl)-1-(methylsulfonyl)-1H-pyrrole-3-carboxamide], the IC50 in experiment [1] and in experiment [2] was over 1 µM in each case.
Consider `CC(C)(O)c1cccc(-c2csc(NC(=O)CNC(=O)c3ccn(S(C)(=O)=O)c3)n2)c1` [Compound 139, N-(2-((4-(3-(2-hydroxypropan-2-yl)phenyl)thiazol-2-yl)amino)-2-oxoethyl)-1-(methylsulfonyl)-1H-pyrrole-3-carboxamide], for which the IC50 in experiment [1] and in experiment [2] was over 0.1 µM in each case.
Take `CC(C)(C)c1cccc(-c2csc(NC(=O)CNC(=O)c3ccn(S(C)(=O)=O)c3)n2)c1` [Compound 140, N-(2-((4-(3-(tert-butyl)phenyl)thiazol-2-yl)amino)-2-oxoethyl)-1-(methylsulfonyl)-1H-pyrrole-3-carboxamide]: the IC50 in experiment [1] and in experiment [2] was over 0.1 µM throughout.
On to `CS(=O)(=O)n1ccc(C(=O)NCC(=O)Nc2nc(-c3cccc(C4(O)CCOCC4)c3)cs2)c1` [Compound 141, N-(2-((4-(3-(4-hydroxytetrahydro-2H-pyran-4-yl)phenyl)thiazol-2-yl)amino)-2-oxoethyl)-1-(methylsulfonyl)-1H-pyrrole-3-carboxamide], for which the IC50 in experiment [1] and in experiment [2] was over 0.1 µM in each case.
As for `CC(C)(C)n1ccc(C(=O)NCC(=O)Nc2nc(-c3ccc4cncnc4c3)cs2)c1` [Compound 142], the IC50 in experiment [1] and in experiment [2] was over 0.1 µM each time.
As to `CN1CCn2nc(-c3cccc(-c4csc(NC(=O)CNC(=O)c5ccn(C(C)(C)C)c5)n4)c3)cc2C1` [Compound 143, 1-(tert-butyl)-N-(2-((4-(3-(5-methyl-4,5,6,7-tetrahydropyrazolo[1,5-a]pyrazin-2-yl)phenyl)thiazol-2-yl)amino)-2-oxoethyl)-1H-pyrrole-3-carboxamide], the IC50 in experiment [1] and in experiment [2] was over 0.1 µM in each case.
For `Cn1ccc(-c2cccc(-c3csc(NC(=O)CNC(=O)c4ccn(C5(C)COC5)c4)n3)c2)n1` [Compound 144], the IC50 in experiment [1] and in experiment [2] was over 0.01 µM throughout.
Regarding `Cn1ccc(-c2cccc(-c3csc(NC(=O)CNC(=O)c4ccn(C(C)(C)C)c4)n3)n2)n1` [Compound 145], the IC50 in experiment [1] and in experiment [2] was over 0.01 µM each time.
`CS(=O)(=O)n1ccc(C(=O)NCC(=O)Nc2nc(-c3c[nH]c(-c4ccncc4)n3)cs2)c1` [Compound 146, 1-(methylsulfonyl)-N-(2-oxo-2-((4-(2-(pyridin-4-yl)-1H-imidazol-4-yl)thiazol-2-yl)amino)ethyl)-1H-pyrrole-3-carboxamide]: the IC50 in experiment [1] and in experiment [2] was over 1 µM throughout.
Take `CS(=O)(=O)n1ccc(C(=O)NCC(=O)Nc2nc(-c3cccc(OCc4ccncc4)n3)cs2)c1` [Compound 147]: the values for the IC50 in experiment [1] and in experiment [2] were over 0.01 µM and under 0.01 µM, respectively.
Turning to `CS(=O)(=O)n1ccc(C(=O)NCC(=O)Nc2nc(-c3cccc(/C=C/c4ccncc4)c3)cs2)c1` [Compound 150], the IC50 in experiment [1] and in experiment [2] was under 0.01 µM throughout.
For `CS(=O)(=O)n1ccc(C(=O)NCC(=O)Nc2nc(-c3cccc(CCc4ccncc4)c3)cs2)c1` [Compound 151, 1-(methylsulfonyl)-N-(2-oxo-2-((4-(3-(2-(pyridin-4-yl)ethyl)phenyl)thiazol-2-yl)amino)ethyl)-1H-pyrrole-3-carboxamide], the IC50 in experiment [1] and in experiment [2] was under 0.01 µM throughout.
Regarding `CN(C(=O)CNC(=O)c1ccn(S(C)(=O)=O)c1)c1nc(-c2cccc(-c3ccncc3)c2)cs1` [Compound 152], the IC50 in experiment [1] and in experiment [2] was over 0.1 µM throughout.
Regarding `CC(C)(NC(=O)c1ccn(S(C)(=O)=O)c1)C(=O)Nc1nc(-c2cccc(-c3ccncc3)c2)cs1` [Compound 153], the IC50 in experiment [1] and in experiment [2] was over 0.1 µM in each case.
As for `Cc1cc(-c2cccc(-c3csc(NC(=O)CNC(=O)c4ccn(S(C)(=O)=O)c4)n3)c2)ccn1` [Compound 154], the IC50 in experiment [1] and in experiment [2] was under 0.01 µM in each case.
